Key:
Carbonic anhydrase 1 [1] = biological target: T1, Carbonic anhydrase 1 (Homo sapiens, UniProt P00915); assay: Inhibition of human recombinant carbonic anhydrase 1 preincubated for 15 mins to 72 hrs measured after 6 hrs by stopped flow CO2 hydration method
Carbonic anhydrase 2 [2] = biological target: T2, Carbonic anhydrase 2 (Homo sapiens, UniProt P00918); assay: Inhibition of human recombinant carbonic anhydrase 2 preincubated for 15 mins to 72 hrs measured after 6 hrs by stopped flow CO2 hydration method
Carbonic anhydrase 7 [3] = biological target: T3, Carbonic anhydrase 7 (Homo sapiens, UniProt P43166); assay: Inhibition of human recombinant carbonic anhydrase 7 preincubated for 15 mins to 72 hrs measured after 6 hrs by stopped flow CO2 hydration method
Carbonic anhydrase 9 [4] = biological target: T4, Carbonic anhydrase 9 (Homo sapiens, UniProt Q16790); assay: Inhibition of human recombinant carbonic anhydrase 9 preincubated for 15 mins to 72 hrs measured after 6 hrs by stopped flow CO2 hydration method
Carbonic anhydrase 12 [5] = biological target: T5, Carbonic anhydrase 12 (Homo sapiens, UniProt O43570); assay: Inhibition of human recombinant carbonic anhydrase 12 preincubated for 15 mins to 72 hrs measured after 6 hrs by stopped flow CO2 hydration method
Carbonic anhydrase 4 [6] = biological target: T6, Carbonic anhydrase 4 (Homo sapiens, UniProt P22748); assay: Inhibition of human recombinant carbonic anhydrase 4 preincubated for 15 mins to 72 hrs measured after 6 hrs by stopped flow CO2 hydration method
Carbonic anhydrase 13 [7] = biological target: T7, Carbonic anhydrase 13 (Homo sapiens, UniProt Q8N1Q1); assay: Inhibition of human recombinant carbonic anhydrase 13 preincubated for 15 mins to 72 hrs measured after 6 hrs by stopped flow CO2 hydration method
Carbonic anhydrase 3 [8] = biological target: T8, Carbonic anhydrase 3 (Homo sapiens, UniProt P07451); assay: Inhibition of human recombinant carbonic anhydrase 3 preincubated for 15 mins to 72 hrs measured after 6 hrs by stopped flow CO2 hydration method
Carbonic anhydrase 6 [9] = biological target: T9, Carbonic anhydrase 6 (Homo sapiens, UniProt P23280); assay: Inhibition of human recombinant carbonic anhydrase 6 preincubated for 15 mins to 72 hrs measured after 6 hrs by stopped flow CO2 hydration method
Carbonic anhydrase 14 [10] = biological target: T10, Carbonic anhydrase 14 (Homo sapiens, UniProt Q9ULX7); assay: Inhibition of human recombinant carbonic anhydrase 14 preincubated for 15 mins to 72 hrs measured after 6 hrs by stopped flow CO2 hydration method
[11] = biological target: T11, Carbonic anhydrase 5A, mitochondrial (Homo sapiens, UniProt P35218); assay: Inhibition of human recombinant carbonic anhydrase 5A preincubated for 15 mins to 72 hrs measured after 6 hrs by stopped flow CO2 hydration method
[12] = biological target: T12, Carbonic anhydrase 5B, mitochondrial (Homo sapiens, UniProt Q9Y2D0); assay: Inhibition of human recombinant carbonic anhydrase 5B preincubated for 15 mins to 72 hrs measured after 6 hrs by stopped flow CO2 hydration method
Carbonic anhydrase 7 [13] = biological target: T3, Carbonic anhydrase 7; assay: Inhibition of human recombinant carbonic anhydrase 7 preincubated for 15 mins to 72 hrs measured after 15 mins by stopped flow CO2 hydration method
Carbonic anhydrase 1 [14] = biological target: T1, Carbonic anhydrase 1; assay: Inhibition of human recombinant carbonic anhydrase 1 preincubated for 15 mins to 72 hrs measured after 15 mins by stopped flow CO2 hydration method
Carbonic anhydrase 12 [15] = biological target: T5, Carbonic anhydrase 12; assay: Inhibition of human recombinant carbonic anhydrase 12 preincubated for 15 mins to 72 hrs measured after 15 mins by stopped flow CO2 hydration method
Carbonic anhydrase 2 [16] = biological target: T2, Carbonic anhydrase 2; assay: Inhibition of human recombinant carbonic anhydrase 2 preincubated for 15 mins to 72 hrs measured after 15 mins by stopped flow CO2 hydration method
Carbonic anhydrase 9 [17] = biological target: T4, Carbonic anhydrase 9; assay: Inhibition of human recombinant carbonic anhydrase 9 preincubated for 15 mins to 72 hrs measured after 15 mins by stopped flow CO2 hydration method
Carbonic anhydrase 6 [18] = biological target: T9, Carbonic anhydrase 6; assay: Inhibition of human recombinant carbonic anhydrase 6 preincubated for 15 mins to 72 hrs measured after 15 mins by stopped flow CO2 hydration method
[19] = biological target: T11, Carbonic anhydrase 5A, mitochondrial; assay: Inhibition of human recombinant carbonic anhydrase 5A preincubated for 15 mins to 72 hrs measured after 15 mins by stopped flow CO2 hydration method
Carbonic anhydrase 3 [20] = biological target: T8, Carbonic anhydrase 3; assay: Inhibition of human recombinant carbonic anhydrase 3 preincubated for 15 mins to 72 hrs measured after 15 mins by stopped flow CO2 hydration method
Carbonic anhydrase 4 [21] = biological target: T6, Carbonic anhydrase 4; assay: Inhibition of human recombinant carbonic anhydrase 4 preincubated for 15 mins to 72 hrs measured after 15 mins by stopped flow CO2 hydration method
[22] = biological target: T12, Carbonic anhydrase 5B, mitochondrial; assay: Inhibition of human recombinant carbonic anhydrase 5B preincubated for 15 mins to 72 hrs measured after 15 mins by stopped flow CO2 hydration method
Carbonic anhydrase 14 [23] = biological target: T10, Carbonic anhydrase 14; assay: Inhibition of human recombinant carbonic anhydrase 14 preincubated for 15 mins to 72 hrs measured after 15 mins by stopped flow CO2 hydration method
Carbonic anhydrase 13 [24] = biological target: T7, Carbonic anhydrase 13; assay: Inhibition of human recombinant carbonic anhydrase 13 preincubated for 15 mins to 72 hrs measured after 15 mins by stopped flow CO2 hydration method
[25] = tested as the Zn salt or complex

T3 sequence (P43166 whole entry): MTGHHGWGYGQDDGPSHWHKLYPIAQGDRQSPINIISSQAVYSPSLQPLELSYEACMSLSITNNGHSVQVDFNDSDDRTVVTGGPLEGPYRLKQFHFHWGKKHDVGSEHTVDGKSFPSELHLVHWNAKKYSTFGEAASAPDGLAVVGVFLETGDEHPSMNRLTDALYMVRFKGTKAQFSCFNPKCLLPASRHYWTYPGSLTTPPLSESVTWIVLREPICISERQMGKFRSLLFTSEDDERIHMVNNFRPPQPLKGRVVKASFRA
T10 sequence (Q9ULX7 whole entry): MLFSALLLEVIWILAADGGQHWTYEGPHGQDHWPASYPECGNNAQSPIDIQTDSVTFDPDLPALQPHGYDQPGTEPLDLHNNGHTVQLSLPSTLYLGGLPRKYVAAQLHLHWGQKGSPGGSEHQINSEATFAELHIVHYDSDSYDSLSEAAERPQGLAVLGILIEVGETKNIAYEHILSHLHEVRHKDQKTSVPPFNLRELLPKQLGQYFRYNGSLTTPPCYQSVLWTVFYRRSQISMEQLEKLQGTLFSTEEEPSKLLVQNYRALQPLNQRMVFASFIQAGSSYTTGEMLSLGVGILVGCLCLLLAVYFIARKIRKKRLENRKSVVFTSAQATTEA
T11 sequence (P35218 whole entry): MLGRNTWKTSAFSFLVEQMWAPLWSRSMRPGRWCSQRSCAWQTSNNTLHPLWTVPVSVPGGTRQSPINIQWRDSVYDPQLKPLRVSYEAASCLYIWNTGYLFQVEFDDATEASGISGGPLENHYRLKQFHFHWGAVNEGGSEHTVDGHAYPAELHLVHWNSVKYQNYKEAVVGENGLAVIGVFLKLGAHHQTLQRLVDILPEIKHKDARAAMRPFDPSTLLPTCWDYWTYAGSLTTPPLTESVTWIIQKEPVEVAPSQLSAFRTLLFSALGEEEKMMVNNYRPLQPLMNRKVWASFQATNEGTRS
T5 sequence (O43570 whole entry): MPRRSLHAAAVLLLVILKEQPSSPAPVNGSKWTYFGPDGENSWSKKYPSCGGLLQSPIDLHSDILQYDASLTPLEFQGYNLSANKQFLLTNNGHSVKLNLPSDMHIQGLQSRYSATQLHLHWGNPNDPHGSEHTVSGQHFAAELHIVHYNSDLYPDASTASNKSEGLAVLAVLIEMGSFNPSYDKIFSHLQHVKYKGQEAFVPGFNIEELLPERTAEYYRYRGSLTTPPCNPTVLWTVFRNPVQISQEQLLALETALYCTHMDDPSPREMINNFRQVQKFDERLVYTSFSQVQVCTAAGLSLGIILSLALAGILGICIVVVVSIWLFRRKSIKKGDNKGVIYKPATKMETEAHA
T7 sequence (Q8N1Q1 whole entry): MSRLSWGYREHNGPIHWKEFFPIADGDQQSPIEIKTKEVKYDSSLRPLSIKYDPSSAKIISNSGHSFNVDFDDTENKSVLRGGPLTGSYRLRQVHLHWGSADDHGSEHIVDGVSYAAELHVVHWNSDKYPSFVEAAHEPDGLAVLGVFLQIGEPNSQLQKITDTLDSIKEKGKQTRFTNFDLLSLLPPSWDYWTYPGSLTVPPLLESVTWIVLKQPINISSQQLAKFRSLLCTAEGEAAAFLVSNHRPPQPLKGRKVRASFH
T12 sequence (Q9Y2D0 whole entry): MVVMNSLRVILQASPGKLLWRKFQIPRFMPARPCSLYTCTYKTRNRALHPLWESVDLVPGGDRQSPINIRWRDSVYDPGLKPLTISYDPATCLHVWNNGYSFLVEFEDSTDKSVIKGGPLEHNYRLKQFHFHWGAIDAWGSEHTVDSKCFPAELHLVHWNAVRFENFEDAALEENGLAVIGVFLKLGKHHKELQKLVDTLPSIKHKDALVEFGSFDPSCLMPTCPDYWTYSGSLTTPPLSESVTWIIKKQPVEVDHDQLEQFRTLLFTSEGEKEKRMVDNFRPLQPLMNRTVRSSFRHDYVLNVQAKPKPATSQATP
T1 sequence (P00915 whole entry): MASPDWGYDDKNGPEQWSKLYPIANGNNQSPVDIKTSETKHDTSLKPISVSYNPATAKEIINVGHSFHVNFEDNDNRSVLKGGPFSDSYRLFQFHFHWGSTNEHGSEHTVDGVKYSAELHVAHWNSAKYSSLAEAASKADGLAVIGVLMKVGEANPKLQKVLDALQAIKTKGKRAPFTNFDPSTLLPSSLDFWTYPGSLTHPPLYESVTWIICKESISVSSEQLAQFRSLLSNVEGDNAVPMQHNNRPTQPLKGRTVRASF
T6 sequence (P22748 whole entry): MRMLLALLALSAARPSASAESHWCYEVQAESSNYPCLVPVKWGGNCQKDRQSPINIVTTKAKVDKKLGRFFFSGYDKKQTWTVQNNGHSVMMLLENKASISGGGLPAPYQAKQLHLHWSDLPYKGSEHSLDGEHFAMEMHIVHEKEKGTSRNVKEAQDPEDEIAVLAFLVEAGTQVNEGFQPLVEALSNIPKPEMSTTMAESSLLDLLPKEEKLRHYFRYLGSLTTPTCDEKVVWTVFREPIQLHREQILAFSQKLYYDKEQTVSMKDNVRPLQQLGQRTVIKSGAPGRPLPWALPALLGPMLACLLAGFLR
T8 sequence (P07451 whole entry): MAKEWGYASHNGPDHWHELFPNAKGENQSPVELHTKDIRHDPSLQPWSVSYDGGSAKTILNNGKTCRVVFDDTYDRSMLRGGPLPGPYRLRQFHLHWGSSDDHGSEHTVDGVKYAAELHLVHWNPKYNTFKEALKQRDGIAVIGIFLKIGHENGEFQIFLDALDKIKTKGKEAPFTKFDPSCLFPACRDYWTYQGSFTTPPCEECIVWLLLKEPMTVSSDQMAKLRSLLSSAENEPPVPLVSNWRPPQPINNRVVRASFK
T9 sequence (P23280 whole entry): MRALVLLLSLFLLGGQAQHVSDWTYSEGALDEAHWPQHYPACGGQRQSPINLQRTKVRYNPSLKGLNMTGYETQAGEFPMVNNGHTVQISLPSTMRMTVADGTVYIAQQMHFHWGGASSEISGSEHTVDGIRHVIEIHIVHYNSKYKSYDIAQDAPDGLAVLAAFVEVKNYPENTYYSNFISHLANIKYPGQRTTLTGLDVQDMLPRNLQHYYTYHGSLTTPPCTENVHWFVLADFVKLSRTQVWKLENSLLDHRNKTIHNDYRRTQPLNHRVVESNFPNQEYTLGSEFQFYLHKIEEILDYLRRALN

In the case of `Cc1cc(C)o/c(=N/O)c1`, the Ki (Carbonic anhydrase 1 [1]) is reported as 0.009 µM, the Ki (Carbonic anhydrase 2 [2]) is reported as greater than 200 µM and the Ki (Carbonic anhydrase 7 [3]) is reported as 0.27 µM. For the same compound, the Ki (Carbonic anhydrase 9 [4]) was 0.016 µM and the Ki (Carbonic anhydrase 12 [5]) was 0.064 µM.

Compound `O=c1ccc2ccccc2o1` [COUMARIN] has a Ki (Carbonic anhydrase 4 [6]) of 62.3 µM, a Ki (Carbonic anhydrase 7 [3]) greater than 200 µM and a Ki (Carbonic anhydrase 13 [7]) greater than 200 µM. For the same compound, the Ki (Carbonic anhydrase 3 [8]) was greater than 200 µM.

Work on `CCOP(=S)(OCC)Oc1ccc2c(C)c(Cl)c(=O)oc2c1` [COUMAPHOS] yielded a Ki (Carbonic anhydrase 1 [1]) of 61.7 µM, a Ki (Carbonic anhydrase 6 [9]) of 2.23 µM and a Ki (Carbonic anhydrase 4 [6]) of 5.48 µM. The Ki (Carbonic anhydrase 2 [2]) was greater than 200 µM, the Ki (Carbonic anhydrase 7 [3]) was 4.68 µM and the Ki (Carbonic anhydrase 13 [7]) was 4.23 µM. For the same compound, the Ki (Carbonic anhydrase 14 [10]) was 4.14 µM, the Ki (Carbonic anhydrase 3 [8]) was 4.62 µM and the Ki (Carbonic anhydrase 9 [4]) was 6.41 µM. It also gave a Ki [11] of 5.09 µM, a Ki [12] of 3.41 µM and a Ki (Carbonic anhydrase 12 [5]) of 9.52 µM.

In the case of `O=C(S)c1ccccc1` [THIOBENZOIC ACID], the Ki (Carbonic anhydrase 7 [13]) is reported as 5.74 µM, the Ki (Carbonic anhydrase 1 [1]) is reported as 10.8 µM and the Ki (Carbonic anhydrase 1 [14]) is reported as 10.8 µM. The Ki (Carbonic anhydrase 12 [15]) was 2.77 µM, the Ki (Carbonic anhydrase 2 [2]) was 51 µM and the Ki (Carbonic anhydrase 7 [3]) was 5.74 µM. The Ki (Carbonic anhydrase 9 [4]) was 5.64 µM, the Ki (Carbonic anhydrase 2 [16]) was 51 µM and the Ki (Carbonic anhydrase 12 [5]) was 2.77 µM. For the same compound, the Ki (Carbonic anhydrase 9 [17]) was 5.64 µM.

Work on `[O-][n+]1ccccc1S` [PYRITHIONE ZINC] yielded a Ki (Carbonic anhydrase 7 [13]; [25]) of 7.76 µM, a Ki (Carbonic anhydrase 1 [1]; [25]) greater than 200 µM and a Ki (Carbonic anhydrase 1 [14]; [25]) greater than 200 µM. The Ki (Carbonic anhydrase 12 [15]; [25]) was 5.4 µM, the Ki (Carbonic anhydrase 6 [18]; [25]) was 2.41 µM and the Ki [19, 25] was 5.12 µM. It also gave a Ki (Carbonic anhydrase 6 [9]; [25]) of 2.41 µM, a Ki (Carbonic anhydrase 4 [6]; [25]) of 6.13 µM and a Ki (Carbonic anhydrase 2 [2]; [25]) greater than 200 µM. The Ki (Carbonic anhydrase 7 [3]; [25]) was 7.76 µM, the Ki (Carbonic anhydrase 13 [7]; [25]) was 4.15 µM and the Ki (Carbonic anhydrase 14 [10]; [25]) was 2.91 µM. It also gave a Ki (Carbonic anhydrase 3 [20]; [25]) of 1.62 µM, a Ki (Carbonic anhydrase 3 [8]; [25]) of 1.62 µM and a Ki (Carbonic anhydrase 4 [21]; [25]) of 6.13 µM. The Ki [22, 25] was 3.55 µM, the Ki (Carbonic anhydrase 9 [4]; [25]) was 1.72 µM and the Ki [11, 25] was 5.12 µM. For the same compound, the Ki [12, 25] was 3.55 µM, the Ki (Carbonic anhydrase 2 [16]; [25]) was greater than 200 µM and the Ki (Carbonic anhydrase 12 [5]; [25]) was 5.4 µM. It also gave a Ki (Carbonic anhydrase 14 [23]; [25]) of 2.91 µM, a Ki (Carbonic anhydrase 9 [17]; [25]) of 1.72 µM and a Ki (Carbonic anhydrase 13 [24]; [25]) of 4.15 µM.

Work on `Oc1ccc2ccccc2n1` yielded a Ki (Carbonic anhydrase 7 [13]) of 0.42 µM, a Ki (Carbonic anhydrase 1 [1]) of 6.23 µM and a Ki (Carbonic anhydrase 1 [14]) of 6.23 µM. It also gave a Ki (Carbonic anhydrase 12 [15]) of 0.093 µM, a Ki (Carbonic anhydrase 6 [18]) of 0.033 µM and a Ki [19] of 0.41 µM. The Ki (Carbonic anhydrase 6 [9]) was 0.033 µM, the Ki (Carbonic anhydrase 4 [6]) was 0.36 µM and the Ki (Carbonic anhydrase 2 [2]) was greater than 200 µM. For the same compound, the Ki (Carbonic anhydrase 7 [3]) was 0.42 µM, the Ki (Carbonic anhydrase 13 [7]) was 0.065 µM and the Ki (Carbonic anhydrase 14 [10]) was 0.036 µM. It also gave a Ki (Carbonic anhydrase 3 [20]) of 0.57 µM, a Ki (Carbonic anhydrase 3 [8]) of 0.57 µM and a Ki (Carbonic anhydrase 4 [21]) of 0.36 µM. It also gave a Ki [22] of 0.75 µM, a Ki (Carbonic anhydrase 9 [4]) of 0.082 µM and a Ki [11] of 0.41 µM. For the same compound, the Ki [12] was 0.75 µM, the Ki (Carbonic anhydrase 2 [16]) was greater than 200 µM and the Ki (Carbonic anhydrase 12 [5]) was 0.093 µM. It also gave a Ki (Carbonic anhydrase 14 [23]) of 0.036 µM, a Ki (Carbonic anhydrase 9 [17]) of 0.082 µM and a Ki (Carbonic anhydrase 13 [24]) of 0.065 µM.

`O/N=c1/ccc2ccccc2o1` showed a Ki (Carbonic anhydrase 1 [1]) of 0.009 µM, a Ki (Carbonic anhydrase 2 [2]) greater than 200 µM and a Ki (Carbonic anhydrase 7 [3]) of 0.84 µM. For the same compound, the Ki (Carbonic anhydrase 9 [4]) was 0.058 µM and the Ki (Carbonic anhydrase 12 [5]) was 0.054 µM.
